{"source": "patent US20090068290A1", "about": "“BIFEPRUNOX DOSES FOR TREATING SCHIZOPHRENIA” (priority 2006, published 2009)", "format_in_all_cases": "in vivo, human", "key": {"[1]": {"test_system": "adult subjects with schizophrenia", "assay": "PANSS positive symptom subscale score, Clinical Study Three", "details": "Olanzapine 15 mg, LOCF, ITT", "text": "(§1) SECONDARY OBJECTIVES To assess the efficacy of bifeprunox in treating schizophrenia using the Positive Symptom sub-scale score of the PANSS, the Negative Symptom sub-scale score of the PANSS, the General Psychopathology sub-scale of the PANSS, Brief Psychiatric Rating Scale (BPRS) total score derived from the PANSS, BPRS psychosis score derived from the PANSS, the Clinical Global Impression Severity of Illness score (CGI-S), the Clinical Global Impression Improvement score (CGI-I), CGI-I responder rate, PANSS responder rate based on the PANSS total score, Calgary Depression Scale for Schizophrenia (CDSS), and Subject Satisfaction rating.\n(§2) There were four treatment arms in this study, approximately 144 subjects per arm. […] After completing the Single-Blind Placebo Lead-in Period of at least three days, bifeprunox-treated subjects were titrated from 0.25 mg up to 20 mg/day or 30 mg/day according to a standardized titration scheme over a seven- or eight-day period, respectively. When the assigned dose was reached, subjects were maintained at that dose for the remainder of the six week treatment period. […] Subjects were hospitalized (if not already inpatients) after eligibility for study entry was verified, starting from the Screening Visit until at least 10 days after Baseline. Subjects could be hospitalized longer than 10 days if considered medically necessary by the Investigator. Rating scale assessments for efficacy and abnormal movement disorders were done weekly except for Week 5. […] Subject satisfaction with study medication was assessed at Week 6."}, "[2]": {"test_system": "adult subjects with schizophrenia", "assay": "BPRS total score, Clinical Study Three", "details": "LOCF; for Change from Baseline in BPRS Total Score, Mean (SD) / Change from Baseline in BPRS Total Score, Median: Olanzapine 15 mg, ITT population", "text": "as §1, §2"}, "[3]": {"test_system": "adult subjects with schizophrenia", "assay": "BPRS psychosis cluster score, Clinical Study Three", "details": "LOCF; for Change from Baseline in BPRS Psychosis Cluster Score, Mean (SD) / Change from Baseline in BPRS Psychosis Cluster Score, Median: Olanzapine 15 mg, ITT population", "text": "as §1, §2"}, "[4]": {"test_system": "adult subjects with schizophrenia", "assay": "CGI Severity of Illness score, Clinical Study Three", "details": "LOCF; for Change from Baseline in CGI Severity of Illness Score, Mean (SD) / Change from Baseline in CGI Severity of Illness Score, Median: 15 mg", "text": "as §1, §2"}, "[5]": {"test_system": "adult subjects with schizophrenia", "assay": "CGI Improvement score, Clinical Study Three", "details": "15 mg, LOCF", "experimental": "CLINICAL STUDY THREE: Table 29 below presents frequencies for the seven categories of CGI Improvement ratings by visit using LOCF for the ITT population. Statistical differences among treatment groups regarding the mean CGI Improvement score were evaluated using a CMH test stratified by pooled center applied to the frequencies of the seven CGI Improvement categories with modified ridit scores. […] The treatment comparison of the 30 mg bifeprunox group versus placebo group was not notable (p=0.162). No notable differences were observed between the placebo group and either of the two bifeprunox dose groups at any other time point during the study (Week 1 through Week 4)."}, "[6]": {"test_system": "adult subjects with schizophrenia", "assay": "PANSS positive symptom subscale score, Clinical Study Two", "details": "Risperidone 6 mg, LOCF, ITT", "experimental": "Rating scale assessments were performed weekly, except for week 5, to measure the change from baseline to endpoint of the PANSS total score. Other assessments included: PANSS positive symptom subscale score, PANSS negative symptom subscale score, PANSS general pschopathology subscale score, BPRS total score, BPRS psychosis score, the CGI-S score, the CGI-I score, responder rates based on the PANSS total score, and the Calgary Depression Scale for Schizophrenia (CDSS). […]\nSubjects who completed this study had the option to continue in the long-term. […] Risperidone-treated subjects were titrated from 2 mg to 6 mg daily over a three-day period and were subsequently maintained at 6 mg/day for the remainder of the treatment period. […] Blood samples were also obtained at Screening/Baseline, Week 3, and Week 6 for clinical laboratory assessments."}}}
{"compound": "Cc1cc2c(s1)Nc1ccccc1N=C2N1CCN(C)CC1", "note": "[Olanzapine, olanzapine, reference compound]", "values": [{"measurement": "Change from Baseline in PANSS Positive Symptom Subscale Score, Mean (SD)", "setting": "[1]; Week 1", "value": "−3.0 (3.3)"}, {"measurement": "Change from Baseline in PANSS Positive Symptom Subscale Score, Median", "setting": "[1]; Week 1", "value": "−2"}, {"measurement": "Change from Baseline in PANSS Positive Symptom Subscale Score, Mean (SD)", "setting": "[1]; Week 2", "value": "−4.9 (4.0)"}, {"measurement": "Change from Baseline in PANSS Positive Symptom Subscale Score, Median", "setting": "[1]; Week 2", "value": "−5"}, {"measurement": "Change from Baseline in PANSS Positive Symptom Subscale Score, Mean (SD)", "setting": "[1]; Week 3", "value": "−6.0 (4.9)"}, {"measurement": "Change from Baseline in PANSS Positive Symptom Subscale Score, Median", "setting": "[1]; Week 3", "value": "−6"}, {"measurement": "Change from Baseline in PANSS Positive Symptom Subscale Score, Mean (SD)", "setting": "[1]; Week 4", "value": "−6.4 (5.4)"}, {"measurement": "Change from Baseline in PANSS Positive Symptom Subscale Score, Median", "setting": "[1]; Week 4", "value": "−7"}, {"measurement": "Change from Baseline in PANSS Positive Symptom Subscale Score, Mean (SD)", "setting": "[1]; Week 6/Endpoint", "value": "−7.0 (5.8)"}, {"measurement": "Change from Baseline in PANSS Positive Symptom Subscale Score, Median", "setting": "[1]; Week 6/Endpoint", "value": "−7"}, {"measurement": "Change from Baseline in BPRS Total Score, Mean (SD)", "setting": "[2]; Week 1", "value": "−5.6 (6.7)"}, {"measurement": "Change from Baseline in BPRS Total Score, Median", "setting": "[2]; Week 1", "value": "−4"}, {"measurement": "Change from Baseline in BPRS Total Score, Mean (SD)", "setting": "[2]; Week 2", "value": "−8.9 (8.2)"}, {"measurement": "Change from Baseline in BPRS Total Score, Median", "setting": "[2]; Week 2", "value": "−8"}, {"measurement": "Change from Baseline in BPRS Total Score, Mean (SD)", "setting": "[2]; Week 3", "value": "−11.4 (9.3)"}, {"measurement": "Change from Baseline in BPRS Total Score, Median", "setting": "[2]; Week 3", "value": "−11"}, {"measurement": "Change from Baseline in BPRS Total Score, Mean (SD)", "setting": "[2]; Week 4", "value": "−12.0 (9.8)"}, {"measurement": "Change from Baseline in BPRS Total Score, Median", "setting": "[2]; Week 4", "value": "−11"}, {"measurement": "Change from Baseline in BPRS Total Score, Mean (SD)", "setting": "[2]; Week 6/Endpoint", "value": "−13.2 (10.7)"}, {"measurement": "Change from Baseline in BPRS Total Score, Median", "setting": "[2]; Week 6/Endpoint", "value": "−12"}, {"measurement": "mean change (SD) from Baseline to Endpoint in BPRS total score", "setting": "[2]; olanzapine 15 mg, ITT", "value": "−13.2 (10.7)"}, {"measurement": "Change from Baseline in BPRS Psychosis Cluster Score, Mean (SD)", "setting": "[3]; Week 1", "value": "−1.9 (2.3)"}, {"measurement": "Change from Baseline in BPRS Psychosis Cluster Score, Median", "setting": "[3]; Week 1", "value": "−2"}, {"measurement": "Change from Baseline in BPRS Psychosis Cluster Score, Mean (SD)", "setting": "[3]; Week 2", "value": "−3.1 (2.6)"}, {"measurement": "Change from Baseline in BPRS Psychosis Cluster Score, Median", "setting": "[3]; Week 2", "value": "−3"}, {"measurement": "Change from Baseline in BPRS Psychosis Cluster Score, Mean (SD)", "setting": "[3]; Week 3", "value": "−4.0 (3.2)"}, {"measurement": "Change from Baseline in BPRS Psychosis Cluster Score, Median", "setting": "[3]; Week 3", "value": "−4"}, {"measurement": "Change from Baseline in BPRS Psychosis Cluster Score, Mean (SD)", "setting": "[3]; Week 4", "value": "−4.4 (3.5)"}, {"measurement": "Change from Baseline in BPRS Psychosis Cluster Score, Median", "setting": "[3]; Week 4", "value": "−5"}, {"measurement": "Change from Baseline in BPRS Psychosis Cluster Score, Mean (SD)", "setting": "[3]; Week 6/Endpoint", "value": "−4.9 (4.0)"}, {"measurement": "Change from Baseline in BPRS Psychosis Cluster Score, Median", "setting": "[3]; Week 6/Endpoint", "value": "−5"}, {"measurement": "mean change (SD) from Baseline to Endpoint in BPRS psychosis cluster score", "setting": "[3]; olanzapine 15 mg, ITT", "value": "−4.9 (4.0)"}, {"measurement": "Change from Baseline in CGI Severity of Illness Score, Mean (SD)", "setting": "[4]; Week 1", "value": "−0.40 (0.65)"}, {"measurement": "Change from Baseline in CGI Severity of Illness Score, Median", "setting": "[4]; Week 1", "value": 0.0}, {"measurement": "Change from Baseline in CGI Severity of Illness Score, Mean (SD)", "setting": "[4]; Week 2", "value": "−0.71 (0.76)"}, {"measurement": "Change from Baseline in CGI Severity of Illness Score, Median", "setting": "[4]; Week 2", "value": "−1.0"}, {"measurement": "Change from Baseline in CGI Severity of Illness Score, Mean (SD)", "setting": "[4]; Week 3", "value": "−0.85 (0.87)"}, {"measurement": "Change from Baseline in CGI Severity of Illness Score, Median", "setting": "[4]; Week 3", "value": "−1.0"}, {"measurement": "Change from Baseline in CGI Severity of Illness Score, Mean (SD)", "setting": "[4]; Week 4", "value": "−0.92 (0.90)"}, {"measurement": "Change from Baseline in CGI Severity of Illness Score, Median", "setting": "[4]; Week 4", "value": "−1.0"}, {"measurement": "Change from Baseline in CGI Severity of Illness Score, Mean (SD)", "setting": "[4]; Week 6/Endpoint", "value": "−1.03 (1.00)"}, {"measurement": "Change from Baseline in CGI Severity of Illness Score, Median", "setting": "[4]; Week 6/Endpoint", "value": "−1.0"}, {"measurement": "mean change (SD) from Baseline to Endpoint in CGI severity of illness score", "setting": "[4]; olanzapine 15 mg, ITT", "value": "−1.03 (1.00)"}, {"measurement": "CGI Improvement Minimally Improved, %", "setting": "[5]; Week 2", "value": "(45%)"}, {"measurement": "CGI Improvement Minimally Worse, %", "setting": "[5]; Week 2", "value": "(6%)"}, {"measurement": "CGI Improvement Much Improved, %", "setting": "[5]; Week 2", "value": "(27%)"}, {"measurement": "CGI Improvement Much Worse, %", "setting": "[5]; Week 2", "value": "(<1%)"}, {"measurement": "CGI Improvement No Change, %", "setting": "[5]; Week 2", "value": "(18%)"}, {"measurement": "CGI Improvement Very Much Improved, %", "setting": "[5]; Week 2", "value": "(4%)"}, {"measurement": "CGI Improvement Minimally Improved, %", "setting": "[5]; Week 4", "value": "(29%)"}, {"measurement": "CGI Improvement Minimally Worse, %", "setting": "[5]; Week 4", "value": "(7%)"}, {"measurement": "CGI Improvement Much Improved, %", "setting": "[5]; Week 4", "value": "(36%)"}, {"measurement": "CGI Improvement Much Worse, %", "setting": "[5]; Week 4", "value": "(3%)"}, {"measurement": "CGI Improvement No Change, %", "setting": "[5]; Week 4", "value": "(17%)"}, {"measurement": "CGI Improvement Very Much Improved, %", "setting": "[5]; Week 4", "value": "(7%)"}, {"measurement": "CGI Improvement Minimally Improved, %", "setting": "[5]; Week 6/Endpoint", "value": "(29%)"}, {"measurement": "CGI Improvement Minimally Worse, %", "setting": "[5]; Week 6/Endpoint", "value": "(7%)"}, {"measurement": "CGI Improvement Much Improved, %", "setting": "[5]; Week 6/Endpoint", "value": "(34%)"}, {"measurement": "CGI Improvement Much Worse, %", "setting": "[5]; Week 6/Endpoint", "value": "(3%)"}, {"measurement": "CGI Improvement No Change, %", "setting": "[5]; Week 6/Endpoint", "value": "(14%)"}, {"measurement": "CGI Improvement Very Much Improved, %", "setting": "[5]; Week 6/Endpoint", "value": "(12%)"}]}
{"compound": "Cc1nc2n(c(=O)c1CCN1CCC(c3noc4cc(F)ccc34)CC1)CCCC2", "note": "[Risperidone, risperidone, reference compound]", "values": [{"measurement": "Change from Baseline in PANSS Positive Symptom Subscale Score, Mean (SD)", "setting": "[6]; Week 1", "value": "−3.3 (3.6)"}, {"measurement": "Change from Baseline in PANSS Positive Symptom Subscale Score, Median", "setting": "[6]; Week 1", "value": "−3"}, {"measurement": "Change from Baseline in PANSS Positive Symptom Subscale Score, Mean (SD)", "setting": "[6]; Week 2", "value": "−5.3 (4.7)"}, {"measurement": "Change from Baseline in PANSS Positive Symptom Subscale Score, Median", "setting": "[6]; Week 2", "value": "−5"}, {"measurement": "Change from Baseline in PANSS Positive Symptom Subscale Score, Mean (SD)", "setting": "[6]; Week 3", "value": "−6.3 (5.3)"}, {"measurement": "Change from Baseline in PANSS Positive Symptom Subscale Score, Median", "setting": "[6]; Week 3", "value": "−6"}, {"measurement": "Change from Baseline in PANSS Positive Symptom Subscale Score, Mean (SD)", "setting": "[6]; Week 4", "value": "−7.0 (5.6)"}, {"measurement": "Change from Baseline in PANSS Positive Symptom Subscale Score, Median", "setting": "[6]; Week 4", "value": "−7"}, {"measurement": "Change from Baseline in PANSS Positive Symptom Subscale Score, Mean (SD)", "setting": "[6]; Week 6/Endpoint", "value": "−7.2 (6.6)"}, {"measurement": "Change from Baseline in PANSS Positive Symptom Subscale Score, Median", "setting": "[6]; Week 6/Endpoint", "value": "−7"}]}
